{"source": "patent US20220106595A1", "about": "“ANTIBACTERIAL ANTISENSE AGENTS” (priority 2018, published 2022)", "key": {"E. coli (ATCC25922)": {"system": "E. coli (ATCC25922)", "assay": "Urinary tract infection mouse model, E. coli (ATCC25922)", "assay_type": "in vivo", "conditions": "48 h post treatment", "experimental": "Efficacy of PED-011 Against E. coli (ATCC25922) in the Urinary Tract Infection Mouse Model\n(§1) Female BALB/c mice were infected trans-ureth rally with ˜ 5×10^8 CFU/animal E. coli (ATCC 25922). Four hours post infection animals were treated twice daily (Q12 h) orally with ciprofloxacin at 30 mg/kg and with single IV doses of PED-011 at 10 and 30 mg/kg (u.i.d). Ten animals from each group were terminated at 48 h post treatment, bladder and kidneys were collected to determine the bacterial load.\n(§2) The vehicle for Ciprofloxacin was 0.25% of Carboxy Methyl Cellulose (CMC) (w/v) and PBS was used for PED-011. PED-011 was dissolved in PBS at 2 & 6 mg/mL. At four hours post infection, animals were treated with the first oral dose of ciprofloxacin and the single dose of PED-011 (10 and 30 mg/kg, IV, single bolus dose, 5 ml/kg dose volume). Animals received further doses of oral ciprofloxacin as per the dosing schedule."}, "E. coli (ATCC BAA-2340)": {"system": "E. coli (ATCC BAA-2340)", "assay": "Urinary tract infection mouse model, resistance strain E. coli (ATCC BAA-2340)", "assay_type": "in vivo", "conditions": "48 h post treatment", "experimental": "Efficacy of PED-011 Against E. coli (ATCC BAA-2340) in the Urinary Tract Infection Mouse Model; Challenge with a Resistance Strain\nas §1, with “trans-urethrally” for “trans-ureth rally”, “˜5×10^8” for “˜ 5×10^8”, “BAA-2340). Twenty-four” for “25922). Four”, “treatment;” for “treatment,”\nas §2, with “twenty-four hour” for “four hours”, “were be” for “were”"}, "A. baumannii (ATCC19606)": {"system": "A. baumannii (ATCC19606)", "assay": "Neutropenic lung infection model in mice, A. baumannii (ATCC19606)", "assay_type": "in vivo", "conditions": "FIG. 7"}, "[1]": {"system": "E. coli (CFT073, ATCC®700928™)", "assay": "Urinary tract infection mouse model, uropathogenic E. coli (CFT073, ATCC 700928)", "assay_type": "in vivo", "experimental": "Efficacy of PED-011 Against E. coli (CFT073, ATCC®700928™) in the Urinary Tract Infection Mouse Model; Challenge with a Uropathogenic Strain\nFemale BALB/c mice were infected trans-urethrally with ˜5×10^8 CFU/animal E. coli (CFT073, ATCC®700928™). Twenty-four hours post infection animals were treated twice daily (Q12 h) orally with ciprofloxacin at 30 mg/kg and with single IV doses of PED-011 at 3, 10 and 30 mg/kg (u.i.d). Ten animals from each group were terminated at 48 h post treatment (72 h post infection); bladder and kidneys were collected to determine the bacterial load.\nas §2, with “PBS at 0.6, 2 &” for “PBS at 2 &”, “mg/mL. At twenty-four hours post” for “mg/mL. At four hours post”"}, "[2]": {"assay": "Log D determination (shake-flask, PBS/1-octanol)", "assay_type": "physicochemical", "conditions": "PBS pH 7.4 / 1-octanol", "experimental": "(v) Log D Determinations:\nLog D(PBS) determinations is performed in 96 well microtitre plates using a miniaturised “shake-flask” method. […] The plates are then capped and mixed vigorously for 1 hour on a microtitre plate shaker, after which they were left to stand, allowing the PBS and octanol phases to separate.\nWhere AUCstd and AUCpbs are the peak areas from the standard and test ion chromatograms respectively."}}, "data": [{"compound": "O=C(O)c1cn(C2CC2)c2cc(N3CCNCC3)c(F)cc2c1=O", "note": "[Ciprofloxacin, reference compound]", "values": [{"measurement": "antibacterial effect in bladder (Log10 CFU/g) vs 4 h control and vehicle control", "setting": "E. coli (ATCC25922); 30 mg/kg, p.o., Q12 h, p<0.05, FIG. 1", "value": "significant antibacterial effect"}, {"measurement": "antibacterial effect in kidneys (Log10 CFU/g) vs 4 h control and vehicle control", "setting": "E. coli (ATCC25922); 30 mg/kg, p.o., Q12 h, p<0.05, FIG. 2", "value": "significant antibacterial effect"}, {"measurement": "antibacterial effect in bladder vs 24 h control and vehicle control", "setting": "E. coli (ATCC BAA-2340); 30 mg/kg, p.o., Q12 h, p<0.05, FIG. 5", "value": "significant antibacterial effect"}, {"measurement": "antibacterial effect in kidneys vs 24 h control and vehicle control", "setting": "E. coli (ATCC BAA-2340); 30 mg/kg, p.o., Q12 h, p<0.05, FIG. 6", "value": "significant antibacterial effect"}, {"measurement": "antibacterial effect in lung vs 52 h vehicle control", "setting": "A. baumannii (ATCC19606); 10 mg/kg, po, Q12 h, p<0.05", "value": "significant antibacterial effect"}, {"measurement": "bactericidal activity in bladder wrt 24 h PI control and vehicle control", "setting": "[1]; 30 mg/kg, p.o., b.i.d. Q12h, 72 h post infection, FIG. 3", "value": "significant (p<0.05) bactericidal activity"}, {"measurement": "bactericidal activity in kidney wrt 24 h PI control and vehicle control", "setting": "[1]; 30 mg/kg, p.o., b.i.d. Q12h, 72 h post infection, p<0.05, FIG. 4", "value": "significant bactericidal activity"}]}, {"compound": "PED-011: Linker-6 (Sugar-L-Ala-NH(CH2)3CO) coupled to PMO PED-1, CTT CGA TAG TG (Sequence ID 57, AcpP) (CTTCGATAGTG; all phosphorodiamidate morpholino (PMO); Linker-6 sugar-L-Ala conjugate attached, position not given here, further chemistry not fully specified)", "values": [{"measurement": "antibacterial activity in bladder vs 4 h and vehicle control", "setting": "E. coli (ATCC25922); 10 mg/kg, IV, single dose, FIG. 1", "value": "not significantly effective"}, {"measurement": "antibacterial activity in kidneys vs 4 h PI control and vehicle control", "setting": "E. coli (ATCC25922); 10 mg/kg, IV, single dose, p<0.05, FIG. 2", "value": "significant antibacterial activity"}, {"measurement": "antibacterial activity in bladder vs 4 h PI control and vehicle control", "setting": "E. coli (ATCC25922); 30 mg/kg, IV, single dose, p<0.05, FIG. 1", "value": "significant antibacterial activity"}, {"measurement": "antibacterial activity in kidneys vs 4 h PI control and vehicle control", "setting": "E. coli (ATCC25922); 30 mg/kg, IV, single dose, p<0.05, FIG. 2", "value": "significant antibacterial activity"}, {"measurement": "antibacterial activity in bladder vs 4 h and vehicle control", "setting": "E. coli (ATCC BAA-2340); 10 mg/kg, IV, single dose, FIG. 5", "value": "not significantly effective"}, {"measurement": "antibacterial activity in kidneys vs 4 h PI control and vehicle control", "setting": "E. coli (ATCC BAA-2340); 10 mg/kg, IV, single dose, p<0.05, FIG. 6", "value": "significant antibacterial activity"}, {"measurement": "antibacterial activity in bladder vs 24 h PI control and vehicle control", "setting": "E. coli (ATCC BAA-2340); 30 mg/kg, IV, single dose, FIG. 5", "value": "a reduction but not statistically significant antibacterial activity"}, {"measurement": "antibacterial activity in kidneys vs 24 h PI control and vehicle control", "setting": "E. coli (ATCC BAA-2340); 30 mg/kg, IV, single dose, p<0.05, FIG. 6", "value": "significant antibacterial activity"}, {"measurement": "Log D7.4", "setting": "[2]", "value": 0.74}, {"measurement": "antibacterial effect in kidney compared to vehicle control", "setting": "[1]; 30 mg/kg, IV, 1 dose, p<0.05, FIG. 4", "value": "significant effect"}, {"measurement": "mean bacterial counts in bladder", "setting": "[1]; 3, 10 and 30 mg/kg, IV, 1 dose, FIG. 3", "value": "dose dependent mean reduction in bacterial counts"}, {"measurement": "antibacterial effect in kidney compared to vehicle control", "setting": "[1]; 3, 10 and 30 mg/kg, IV, 1 dose, FIG. 4", "value": "dose dependent antibacterial effect"}, {"measurement": "antibacterial effect in bladder wrt vehicle control", "setting": "[1]; 3, 10 and 30 mg/kg, IV, 1 dose, p>0.05, FIG. 3", "value": "did not show significant antibacterial effect"}]}, {"compound": "PED-012: Linker-6 coupled to PMO PED-2, TCA AAT GAG GC (Sequence ID 91, ftsZ) (TCAAATGAGGC; all phosphorodiamidate morpholino (PMO); Linker-6 conjugate attached at 3' morpholino end, 5' end group not given here, further chemistry not fully specified)", "values": [{"measurement": "antibacterial activity in lung vs vehicle control at 52 h PI", "setting": "A. baumannii (ATCC19606); 10 mg/kg, IN, single dose, p>0.05", "value": "not significantly effective"}, {"measurement": "antibacterial activity in lung vs 52 h vehicle control", "setting": "A. baumannii (ATCC19606); 30 mg/kg, IN, single dose, p<0.05", "value": "significant antibacterial activity"}]}]}
